Results reported in US20100311726A1, “REDUCTION OF BETA-AMYLOID LEVELS BY TREATMENT WITH THE SMALL MOLECULE DIFFERENTIATION-INDUCING FACTOR” (priority 2007, published 2010).
Non-standard residues stand in square brackets, D forms with d. Residues, ends and D or L forms follow the SMILES beside them. Nle = CCCC[C@H](N)C(=O)O

Tests used:
[1] = tested on: APP ubiquitin-conjugates; test: APP ubiquitin-conjugates by immunoprecipitation and western blot; conditions: CHO-CAB; DIF-1 30 μM, lactacystin 10 μM, ALLN 10 μM
Procedure: For immunoprecipitations, 1 mg of total protein was diluted with extraction buffer and precleared with protein G-conjugated agarose beads (Pierce). The precleared samples were incubated overnight with anti-APP antibodies or nonimmune IgG (Jackson Laboratories). Immunocomplexes were captured with Protein G agarose beads, washed five times with extraction buffer and heated for 5 min at 95° C. in SDS gel-loading buffer.
CHO-CAB cell protein extracts (1 mg) were immunoprecipitated using APP antibodies. The immunoprecipitated complexes were analyzed by western blotting using anti-ubiquitin antibodies. […] Molecular Weight markers (kDa) are shown on the left. GAPDH levels are shown below each blot. The data represents that of three separate experiments.
To determine whether the proteasome-mediated degradation of APP is accompanied by increased levels of poly-ubiquitinated APP, we investigated the ubiquitination status of APP in extracts of CHO-CAB cells treated in the absence or presence of DIF-1 (30 μM), lactacystin (10 μM), ALLN (10 μM), DIF-1+lactacystin and DIF-1+ALLN.

[2] = tested on: cyclin D1; test: Cyclin D1 level by western blot; conditions: for effect on cyclin D1 level (proteasome inhibitor alone): CHO-CAB, 10 μM
Procedure: Following treatment of each cell line with or without DIF-1 (1-30 μM) and/or other inhibitors, cells were lysed in cold RIPA buffer (20 mM Tris-HCl (pH 7.4) buffer containing 150 mM NaCl, 2 mM EDTA, 1% Nonidet® P-40 (NP-40), 50 mM NaF, 1 mM Na3VO4, 1 mM Na2MoO4, 10 mg/ml aprotinin, and 10 mg/ml leupeptin), supplemented with protease inhibitor tablets from Roche (Switzerland). Protein amounts were quantified in triplicate using the BCA assay from Pierce. Equal amounts of protein extracts were fractionated by sodium dodecyl sulfate polyacrylamide gel electrophoresis (SDS-PAGE) and transferred to polyvinylidene difluoride membranes. The membranes were blocked for 1 hour with 5% fat-free powdered milk or 5% BSA, incubated overnight at 4° C. with primary antibodies (1:1000 or 1:5000), washed with TTBS and then incubated at room temperature with appropriate peroxidase-conjugated secondary antibodies (1:5000). Blots were repeatedly washed with TTBS and target proteins were detected using an enhanced chemiluminescence (ECL) system (Amersham Pharmacia Biotech, New Jersey, USA) and XOMAT™ Kodak® film.
Densitometry analysis of western blot data was performed on a PC computer using QuantityOne® software obtained from Bio-Rad® Laboratories, Inc. (California, USA). Loading variations between western blot lanes were normalized according to the GAPDH signal prior to any experimental quantification. Each western blot presented in the figures is representative of at least five independent experiments to ensure reproducibility of the results unless noted otherwise.
CHO-CAB cells were treated with lithium chloride (10mM). […] To ensure that the results observed were due to proteasome inhibition, we assessed the effects of lactacystin and ALLN on cyclin D1 levels. […] The data represents that of three separate experiments.

[3] = tested on: APP; test: APP processing (mature APP, αCTF, βCTF) by western blot; format: cell-based, human; conditions: for effect of proteasome inhibitor alone on APP CTF levels: CHO-CAB, 10 μM; for effect of kinase inhibitor alone on APP processing / CTF levels: CHO-7W or CHO-CAB, LiCl 1-10 mM; for effect of kinase inhibitor pretreatment on the effect of DIF-1 on APP processing: with 30 μM DIF-1
[4] = tested on: APP; test: as above; format: cell-based, human; conditions: CHO-7W, 250 nM
Procedure: Total protein was collected in RIPA buffer plus protease inhibitors on ice and briefly sonicated. They lysate was centrifuged at 14,000 rpm for 15 minutes. […] After washing, the blots were probed with a polyclonal HRP-tagged secondary Ab (1:5000) for 1 hour at room temperature then visualized.
A second possibility is that DIF-1 potentiates the activity of y-secretase and processing of αCTFs and βCTFs. To assess this latter possibility, we examined the effect of DIF-1 in the presence of DAPT, a potent γ-secretase inhibitor. Even numbers of CHO-7W cells were plated in 6-well dishes and allowed to grow overnight. The next day, the media was removed and replaced with control media (2 ml) or media containing DAPT, DIF-1 or DAPT and DIF-1. […] After washing, blots were probed with HRP-conjugated secondary antibodies (1:5000) for 1 hour at room temperature. […] It would appear that the mechanism of DIF-1 on APP metabolism is not likely to involve γ-secretase activity, but might impact on either BACE1 levels or activity.
To evaluate this probability, we treated CHO-CAB cells that overexpress human APP^751 and human BACE1 with 30 μM of DIF-1. More specifically, even numbers of CHO-CAB cells were plated in 6-well dishes and allowed to grow overnight. The next day, the media was removed and replaced with control media (2 ml) or media containing DAPT, DIF-1 or DAPT and DIF-1. […] After washing, blots were probed with HRP-conjugated secondary antibodies (1:5000) for 1 hour at room temperature. Each treatment is shown above the blot. […] It would appear that DIF-1 has a greater effect on APP maturation in CHO-CAB cells. Longer exposures reveal the presence of mature APP bands in DIF-1 treated cells.
Next dose-dependent effects of DIF-1 on APP processing were examined. Even numbers of CHO-CAB cells were plated in 6-well dishes and allowed to grow overnight. The next day, cells were treated overnight with either vehicle or increasing concentrations of DIF-1 (5-30 μM).

[5] = tested on: APP phosphorylation on residue T668; test: APP T668 phosphorylation by western blot; format: cell-based, human; conditions: CHO-7W and CHO-CAB; DAPT alone, or DAPT with DIF-1 (30 μM)
Procedure: Next, whether or not DIF-1 treatment affected the degree of T668 phosphorylation was examined by western blot (FIG. 11). Briefly, effects of DIF-1 on APP T668 phosphorylation were compared between vehicle-treated control and 250 nM of DAPT identically in each cell line. Western analysis of 15 μg of total protein was probed overnight at 4° C. with anti-APP Cterminal antibody (C66-676-695) (1:5000) and then detected on film using ECL and HRP-conjugated secondary antibodies (1:5000). […] This band has also been detected in other CHO lines where APP expression is high (˜3 fold) and by different C-terminal APP antibodies (Ab8717-676-695; except 6E10 which recognizes the N-terminal residues 1-17 of the Aβ sequence. For FIG. 11A, cells were treated with DAPT, and DAPT+DIF then were probed with anti-APP antibody (C66). For FIG. 11B, CHO-7W cells were treated with DAPT, and DAPT+DIF, and then probed with polyclonal anti-P668 APP antibody (1:1000) overnight at 4° C. in 5% BSA. After washing, cells were probed with a rabbit HRP-conjugated secondary antibody (1:5000) in BSA for 1 hour at room temperature and signals were detected on film using ECL. FIG. 11C represents CHO-CAB cells and FIG. 11D represents H4 cells expressing APP^SW.

[6] = tested on: human APLP1; test: APLP1 metabolism by western blot in CHO-A1 cells; format: cell-based; conditions: 30 μM DIF-1 or 250 nM DAPT, ~20 hours
Procedure: CHO cells that stably express human APLP1, which is a closely related family member of the APPs and known γ-secretase substrate (Eggert et al., 2004), were treated with 30 μM DIF-1, DAPT or DIF-1 plus DAPT (FIG. 7). Equal numbers of CHO-A1 cells stably expressing human APLP1 cells were plated in 6-well dishes and allowed to grow overnight. The next day, the media was removed and replaced with control media (2 ml) or media containing DAPT, DIF-1 or DAPT and DIF-1. […] After washing, blots were probed with HRP-conjugated secondary antibodies (1:5000) for 1 hour at room temperature.

[7] = tested on: Dictyostelium discoideum; conditions: cited from earlier work
[8] = tested on: human leukemia K562 cells; conditions: Kubohara 1999; cited from earlier work
[9] = tested on: GSK; conditions: cited from earlier work

CCCC[C@@H](C=O)NC(=O)[C@H](CC(C)C)NC(=O)[C@H](CC(C)C)NC(C)=O [ALLN, Acetyl-L-Leucyl-L-Leucyl-L-Norleucinal, reference compound] (Ac-Leu-Leu-[Nle]-aldehyde)
level of APP ubiquitin-conjugates (single agent) [1]: increased the level of APP ubiquitin conjugates | effect on cyclin D1 level (proteasome inhibitor alone) [2]: increased the levels of cyclin D1 | effect of proteasome inhibitor alone on APP CTF levels [3]: induced an increase in CTF levels

C[C@H](NC(=O)Cc1cc(F)cc(F)c1)C(=O)N[C@H](C(=O)OC(C)(C)C)c1ccccc1 [DAPT, N4-[N-(3,5-difluorophenacetyl-1-alanyl)]-S-phenylglycine tert-butyl ester, reference compound]
α- and βCTF levels with γ-secretase inhibitor alone [4]: increase in the levels of both α- and βCTFs | effect on cyclin D1 level ([2]; CHO-7W, 30 μM DIF-1 or 250 nM DAPT): no effect | amount of T668 phosphorylated APP CTFs [5]: greatly increased the amount of detectable phosphorylated APP at residue T668 | APLP1 maturation, protein levels, CTF levels [6]: significant increase in the levels of APLP1 CTF

CCCCC(=O)c1c(O)c(Cl)c(OC)c(Cl)c1O [DIF-2, 1-(3,5-dichloro-2,6-dihydroxy-4-methoxyphenyl)pentan-1-one]
specific activity relative to DIF-1 (stalk-cell differentiation) ([7]; percent of the activity of DIF-1): ~40%

CCCCCC(=O)c1c(O)cc(OC)c(Cl)c1O [DIF-3, 1-(3-chloro-2,6-dihydroxy-4-methoxyphenyl)hexan-1-one]
anti-leukemic potency among DIF analogs [8]: most potent anti-leukemic agent | activity in inducing stalk-cell differentiation ([7]; in words): much less active

O=C1Cc2c([nH]c3ccc(Br)cc23)-c2ccccc2N1 [kenpaullone, 9-bromo-7,12-dihydro-indolo[3,2d][1]benzazepin-6(5H)-one]
effect of kinase inhibitor alone on APP processing / CTF levels [3]: no effect on the level of APP CTFs | effect of kinase inhibitor pretreatment on the effect of DIF-1 on APP processing [3]: neither attenuated nor potentiated the effect of DIF-1 on APP processing | IC50 [9]: 23 nM

CC(=O)N[C@@H](CSC(=O)[C@]1([C@@H](O)C(C)C)NC(=O)[C@H](C)[C@@H]1O)C(=O)O [lactacystin, 3S-hydroxy-2R-(1-hydroxy-2-methylpropyl)-4R-methyl-5-oxo-2 pyrrolidine-carboxylate-N-acetyl-L-cysteine, reference compound]
level of APP ubiquitin-conjugates (single agent) [1]: increased the level of APP ubiquitin conjugates | effect on cyclin D1 level (proteasome inhibitor alone) [2]: increased the levels of cyclin D1 | effect of proteasome inhibitor alone on APP CTF levels [3]: induced an increase in the level of αCTF and βCTF

CC[C@H](CO)Nc1nc(NCc2ccccc2)c2ncn(C(C)C)c2n1 [roscovitine, 2-(R)-[[9-(1-Methylethyl)-6-[(phenylmethyl)amino]-9H-purin-2-yl]amino]-1 butanol]
effect of kinase inhibitor alone on APP processing / CTF levels [3]: no effect on APP metabolism | effect of kinase inhibitor pretreatment on the effect of DIF-1 on APP processing [3]: neither blocked nor potentiated the effect of DIF-1 on APP CTF production
